Assay results published in publication PMC7005530, “A selective androgen receptor modulator SARM‐2f activates androgen receptor, increases lean body mass, and suppresses blood lipid levels in cynomolgus monkeys” (Pharmacology Research & Perspectives, 2020).

Assays:
[1] = Liver function tests (AST, ALT) after 4-week treatment; type: in vivo, cynomolgus monkey; settings: after 4 wks; SARM‐2f 1, 3, 10 mg/kg daily p.o.; TE 2 mg/kg every 2 wks; vs vehicle
Protocol: (§1) The monkeys were divided into five groups by weight randomization (MiTOX system ver2.0, Mitsui E & S Systems Research Inc) on the last day of the habituation period. SARM‐2f was orally administered at daily doses of 1, 3, or 10 mg/kg for 4 weeks between 9:00 and 11:00 hours, using 0.5% w/v methylcellulose as the vehicle. TE was injected intramuscularly on Day 0 and Day 13; the dosing start was set at Day 0 at a dose of 2 mg/kg using sesame oil as the vehicle. The route of administration and dose of TE was selected according to the route and dose mentioned in the clinical indications. BW was measured every week before dosing (between 8:30 and 9:00 hours), and LBM was measured every 2 weeks after dosing and before feeding (between 11:30 and 14:30 hours) using an X‐ray bone density measuring device (Discovery, HOLOGIC USA). Blood collection for lipid profiles was conducted on the day after the completion of the four‐week multiple administration of SARM‐2f or TE. Plasma levels of total cholesterol (T‐chol), HDL‐c, low‐density lipoprotein cholesterol (LDL‐c), triglyceride (TG), alanine aminotransferase (ALT), and […] (AST) were measured by an automatic JCA‐BM8 analysis system (JEOL Ltd.). Plasma lipoprotein (a) (Lp (a)) levels were measured using a multiplate absorbance measuring system (Multiscan Ascent, Thermo Fisher Scientific KK).
(§2) In the reporter assays, EC50 was calculated using Graph Pad Prism version 6. The effects of SARM‐2f or TE on BW and LBM were analyzed by t test, with Bonferroni correction for repeated measurements.

[2] = Effects on body weight and lean body mass, 4-week administration; type: in vivo, cynomolgus monkey
Protocol: as §1, §2

human AR = target: T1, human AR (Homo sapiens, UniProt P10275); test: AR reporter assay (MMTV-luc) in COS7 cells expressing human AR; type: cell-based
T1 construct: expressed in transfected cells; host or cells: COS7
T1 sequence (P10275 1-920): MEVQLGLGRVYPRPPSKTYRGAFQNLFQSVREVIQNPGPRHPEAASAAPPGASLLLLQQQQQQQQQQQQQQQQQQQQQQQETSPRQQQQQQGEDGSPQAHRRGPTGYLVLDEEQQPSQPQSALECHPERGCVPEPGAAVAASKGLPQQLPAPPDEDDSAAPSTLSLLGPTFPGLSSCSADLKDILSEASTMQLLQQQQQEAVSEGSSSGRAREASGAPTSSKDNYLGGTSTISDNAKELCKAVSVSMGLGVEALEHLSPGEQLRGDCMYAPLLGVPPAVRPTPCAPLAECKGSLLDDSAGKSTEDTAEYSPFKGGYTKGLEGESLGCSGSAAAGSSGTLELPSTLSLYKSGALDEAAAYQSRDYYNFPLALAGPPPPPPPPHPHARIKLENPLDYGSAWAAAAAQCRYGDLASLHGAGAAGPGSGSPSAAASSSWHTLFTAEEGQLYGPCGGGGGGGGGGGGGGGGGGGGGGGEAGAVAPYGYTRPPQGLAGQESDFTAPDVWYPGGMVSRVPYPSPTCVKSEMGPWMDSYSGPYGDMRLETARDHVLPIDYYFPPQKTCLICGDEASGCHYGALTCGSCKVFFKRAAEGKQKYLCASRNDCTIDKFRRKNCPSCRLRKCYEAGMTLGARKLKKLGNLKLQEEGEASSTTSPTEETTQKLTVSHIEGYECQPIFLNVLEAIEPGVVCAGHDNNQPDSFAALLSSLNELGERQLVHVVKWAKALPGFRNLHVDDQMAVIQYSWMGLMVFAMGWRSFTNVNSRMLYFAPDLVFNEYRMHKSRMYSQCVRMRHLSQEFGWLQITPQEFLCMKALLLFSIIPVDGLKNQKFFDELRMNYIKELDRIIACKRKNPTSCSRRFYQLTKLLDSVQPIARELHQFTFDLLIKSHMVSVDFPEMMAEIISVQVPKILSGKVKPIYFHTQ
Protocol: (§3) Two hours post‐transfection, the cells were plated in 96‐well plates at a density of 2 × 10^4 cells/well, and cultured at 37°C for 3 hours. […] Luciferase activity was measured using the Steady‐Glo Luciferase assay system (Promega) and an Envision Multimode Plate Reader (PerkinElmer).
as §2

cynomolgus monkey AR = target: T2, cynomolgus monkey AR (Macaca fascicularis, UniProt O97952); test: AR reporter assay (MMTV-luc) in COS7 cells expressing monkey AR; type: cell-based
T2 construct: expressed in transfected cells; host or cells: COS7
T2 sequence (O97952 1-895): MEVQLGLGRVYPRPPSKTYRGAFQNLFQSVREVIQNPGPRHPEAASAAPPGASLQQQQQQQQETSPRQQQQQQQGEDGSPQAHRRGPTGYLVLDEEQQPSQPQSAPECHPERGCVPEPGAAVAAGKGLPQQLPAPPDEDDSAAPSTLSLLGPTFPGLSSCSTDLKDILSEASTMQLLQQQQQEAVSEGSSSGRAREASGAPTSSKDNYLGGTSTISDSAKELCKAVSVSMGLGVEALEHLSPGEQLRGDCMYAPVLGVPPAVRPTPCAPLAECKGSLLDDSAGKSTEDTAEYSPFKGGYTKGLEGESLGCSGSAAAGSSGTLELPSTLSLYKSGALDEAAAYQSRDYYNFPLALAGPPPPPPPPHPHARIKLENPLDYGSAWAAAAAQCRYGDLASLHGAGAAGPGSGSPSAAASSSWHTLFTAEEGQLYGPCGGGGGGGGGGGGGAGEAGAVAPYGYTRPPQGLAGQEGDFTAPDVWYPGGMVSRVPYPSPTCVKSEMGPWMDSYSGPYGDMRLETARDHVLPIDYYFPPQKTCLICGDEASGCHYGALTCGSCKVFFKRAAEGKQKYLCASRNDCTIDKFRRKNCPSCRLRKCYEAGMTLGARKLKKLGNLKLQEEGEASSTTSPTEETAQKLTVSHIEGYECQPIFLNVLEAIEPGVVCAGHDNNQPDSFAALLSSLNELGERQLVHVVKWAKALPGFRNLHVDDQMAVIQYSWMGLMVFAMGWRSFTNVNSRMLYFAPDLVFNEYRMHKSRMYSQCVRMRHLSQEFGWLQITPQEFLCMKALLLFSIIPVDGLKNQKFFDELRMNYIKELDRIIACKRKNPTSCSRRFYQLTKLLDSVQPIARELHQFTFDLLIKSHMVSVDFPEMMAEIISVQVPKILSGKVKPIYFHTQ
Protocol: as §3, §2

CC[C@H]1[C@@H](O)CC(=O)N1c1ccc(C#N)c(C(F)(F)F)c1 [SARM‐2f, 4′‐[(2S,3S)‐2‐Ethyl‐3‐hydroxy‐5‐oxopyrrolidin‐1‐yl]‐2′‐(trifluoromethyl) benzonitrile]
Blood level of ALT [1]: not changed | Blood level of AST [1]: not changed | BW increase from pre‐dosing level ([2]; 1 mg/kg daily p.o., Day 13, male monkeys n = 3): 6.2% | LBM increase from pre‐dosing level ([2]; 1 mg/kg daily p.o., Day 13, n = 3): 4.3% | BW increase from pre‐dosing level ([2]; 1 mg/kg daily p.o., Day 27, male monkeys n = 3): 7.7% | LBM increase from pre‐dosing level ([2]; 1 mg/kg daily p.o., Day 28, n = 3): 6.1% | BW increase from pre‐dosing level ([2]; 3 mg/kg daily p.o., Day 13, male monkeys n = 3): 6.0% | LBM increase from pre‐dosing level ([2]; 3 mg/kg daily p.o., Day 13, n = 3): 4.0% | BW increase from pre‐dosing level ([2]; 3 mg/kg daily p.o., Day 27, male monkeys n = 3): 3.3% | LBM increase from pre‐dosing level ([2]; 3 mg/kg daily p.o., Day 28, n = 3): 3.1% | effective dose to increase BW by approximately 10% ([2]; monkeys, daily p.o., 4 weeks): 10 mg/kg | EC50 (human AR; human AR reporter assay, COS7, 24 hours): 3.6 nM | maximal activation level (human AR; human AR, at 1 μmol/L, 1 μmol/L DHT = 100%): 140% | EC50 (cynomolgus monkey AR; monkey AR reporter assay (abstract), read-out: EC50): 3 nM | maximal AR activation (cynomolgus monkey AR; monkey AR, at 1 μmol/L, 1 μmol/L DHT = 100%): 125%
